pEC50: −log10 of the molar value. Values after ≈ are worked out from the molar mass of the structure shown.
How the values were obtained:
A. baumannii PBP2 = A. baumannii PBP2 (Acinetobacter baumannii, UniProt D0C8Z9); experiment: Bocillin-FL competition binding via gel filtration, A. baumannii PBP2
Outline: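 Enzyme was pre-incubated with rising inhibitor concentrations, then Bocillin-FL was added and incubated 15 minutes more. Bound probe was separated by gel filtration and fluorescence read. EC50 came from fitting fraction of PBP labelled versus inhibitor concentration to a Hill equation with ymin, ymax and n.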

A. baumannii ATCC 17978 = experiment: microbe, parasite or virus in culture; type: cell-based; settings: Acinetobacter baumannii, ATCC17978, read-out: MIC, A. baumannii ATCC 17978
A. baumannii ATCC 19606 = experiment: microbe, parasite or virus in culture; type: cell-based; settings: Acinetobacter baumannii, ATCC19606, read-out: MIC, A. baumannii ATCC 19606
P. aeruginosa ATCC 35151 = experiment: microbe, parasite or virus in culture; type: cell-based; settings: Pseudomonas aeruginosa, ATCC35151, read-out: Minimum inhibitory concentration, P. aeruginosa ATCC 35151
[1] = system: P. aeruginosa (ΔmexAB-oprM); experiment: Broth microdilution MIC in iron-depleted CAMHB (IDM); type: cell-based; settings: Pseudomonas aeruginosa; iron-depleted CAMHB (IDM); […]; read-out: Minimum inhibitory concentration, P. aeruginosa ΔmexAB-oprM
P. aeruginosa CDC-0090 = experiment: microbe, parasite or virus in culture; type: cell-based; settings: Pseudomonas aeruginosa, CDC0090, read-out: Minimum inhibitory concentration, P. aeruginosa CDC-0090
P. aeruginosa CDC-0095 = experiment: microbe, parasite or virus in culture; type: cell-based; settings: Pseudomonas aeruginosa, CDC0095, read-out: Minimum inhibitory concentration, P. aeruginosa CDC-0095
A. baumannii CDC-0033 = experiment: microbe, parasite or virus in culture; type: cell-based; settings: Acinetobacter baumannii, CDC0033, read-out: MIC, A. baumannii CDC-0033
A. baumannii CDC-0036 = experiment: microbe, parasite or virus in culture; type: cell-based; settings: Acinetobacter baumannii, CDC0036, read-out: MIC, A. baumannii CDC-0036
A. baumannii CDC-0045 = experiment: microbe, parasite or virus in culture; type: cell-based; settings: Acinetobacter baumannii, CDC0045, read-out: MIC, A. baumannii CDC-0045
[2] = system: B. humptydooensis ATCC BAA-2767; experiment: microbe, parasite or virus in culture; type: cell-based; settings: Burkholderia humptydooensis, ATCCBAA2767, read-out: Minimum inhibitory concentration (MIC), B. humptydooensis ATCC BAA-2767
[3] = biological target: T1, PBP3 from Escherichia coli (K-12) (Escherichia coli, UniProt P0AD68); experiment: Bocillin-FL fluorescence polarization competition binding, E. coli PBP3
T1 construct: made in house
T1 sequence (P0AD68 1-577): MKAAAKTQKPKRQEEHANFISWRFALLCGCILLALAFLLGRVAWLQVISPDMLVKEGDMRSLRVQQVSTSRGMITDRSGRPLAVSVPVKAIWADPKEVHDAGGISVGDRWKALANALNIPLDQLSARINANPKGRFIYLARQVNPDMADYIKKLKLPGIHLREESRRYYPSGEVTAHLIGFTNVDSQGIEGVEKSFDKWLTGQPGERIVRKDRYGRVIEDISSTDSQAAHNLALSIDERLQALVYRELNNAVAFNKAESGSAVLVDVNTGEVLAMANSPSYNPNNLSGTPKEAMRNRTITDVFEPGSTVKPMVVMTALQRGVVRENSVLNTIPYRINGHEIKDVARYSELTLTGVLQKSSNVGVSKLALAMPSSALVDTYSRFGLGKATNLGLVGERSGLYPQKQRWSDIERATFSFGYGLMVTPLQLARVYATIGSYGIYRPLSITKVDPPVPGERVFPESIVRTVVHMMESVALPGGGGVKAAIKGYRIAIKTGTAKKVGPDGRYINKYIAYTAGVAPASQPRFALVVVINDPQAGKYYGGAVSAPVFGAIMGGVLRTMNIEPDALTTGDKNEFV
Outline: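 Purified PBPs pre-incubated with inhibitor (E. coli PBP3 1.5 μM, 30 min; P. aeruginosa PBP3 0.75 μM, A. baumannii PBP1a 1 μM and PBP3 0.2 μM, 15 min), then Bocillin-FL 0.1 μM (0.05 μM for PBP1a) added; FP read up to 60 min. EC50 = concentration halving bound Bocillin-FL.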

A. baumannii PBP2, sequence (D0C8Z9 whole entry): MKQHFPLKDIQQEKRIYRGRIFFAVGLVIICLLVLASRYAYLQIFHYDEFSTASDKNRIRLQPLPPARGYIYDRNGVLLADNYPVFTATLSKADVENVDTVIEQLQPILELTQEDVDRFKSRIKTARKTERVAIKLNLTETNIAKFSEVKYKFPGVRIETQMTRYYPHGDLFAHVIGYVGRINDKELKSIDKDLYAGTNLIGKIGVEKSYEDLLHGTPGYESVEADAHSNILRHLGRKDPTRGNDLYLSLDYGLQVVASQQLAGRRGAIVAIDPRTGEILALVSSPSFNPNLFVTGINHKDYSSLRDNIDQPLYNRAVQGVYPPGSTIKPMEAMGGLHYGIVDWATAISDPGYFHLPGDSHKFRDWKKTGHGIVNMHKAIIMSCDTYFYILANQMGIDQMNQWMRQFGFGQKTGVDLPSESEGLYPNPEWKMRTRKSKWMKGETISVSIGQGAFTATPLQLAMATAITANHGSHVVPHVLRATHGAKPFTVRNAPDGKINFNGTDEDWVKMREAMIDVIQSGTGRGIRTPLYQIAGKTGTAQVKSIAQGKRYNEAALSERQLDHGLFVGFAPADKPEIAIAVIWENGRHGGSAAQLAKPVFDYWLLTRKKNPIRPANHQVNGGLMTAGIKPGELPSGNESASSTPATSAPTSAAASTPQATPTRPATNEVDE

O=C(O)c1c(F)ccc2c1OB(O)[C@@H](NC(=O)[C@H](NC(=O)N1CCN(C3CCN(C(=O)Nc4ccc(O)cc4)CC3)C1=O)c1cc(F)c(O)c(O)c1Cl)C2 (single isomer, unassigned) [Example 468]
pEC50 (A. baumannii PBP2): > 5.00
MIC (A. baumannii ATCC 17978): < 1 µg/mL
MIC (A. baumannii ATCC 19606): < 1 µg/mL
MIC (P. aeruginosa ATCC 35151): < 1 µg/mL
MIC [1]: < 1 µg/mL
MIC (P. aeruginosa CDC-0090): < 1 µg/mL
MIC (P. aeruginosa CDC-0095): < 1 µg/mL
MIC (A. baumannii CDC-0033): < 1 µg/mL
MIC (A. baumannii CDC-0036): < 1 µg/mL
MIC (A. baumannii CDC-0045): < 1 µg/mL
MIC [2]: < 1 µg/mL

O=C(O)c1c(F)ccc2c1OB(O)[C@@H](NC(=O)C(NC(=O)N1CCN(Cc3ccc(O)c(O)c3Cl)C(=O)C1=O)c1cc(F)c(O)c(O)c1Cl)C2 (stereo partly drawn) [Example 292, (3R)-3-(2-(4-(2-chloro-3,4-dihydroxybenzyl)-2,3-dioxopiperazine-1-carboxamido)-2-(2-chloro-5-fluoro-3,4-dihydroxyphenyl)acetamido)-7-fluoro-2-hydroxy-3,4-dihydro-2H-benzo[e][1,2]oxaborinine-8-carboxylic acid]
pEC50 [3]: > 5.00
MIC (A. baumannii ATCC 17978): < 1 µg/mL
MIC (A. baumannii ATCC 19606): > 128 µg/mL
MIC (P. aeruginosa ATCC 35151): < 1 µg/mL
MIC [1]: < 1 µg/mL
MIC (P. aeruginosa CDC-0090): < 1 µg/mL
MIC (P. aeruginosa CDC-0095): > 128 µg/mL
MIC (A. baumannii CDC-0033): > 128 µg/mL
MIC (A. baumannii CDC-0036): > 128 µg/mL
MIC (A. baumannii CDC-0045): > 128 µg/mL
MIC [2]: > 128 µg/mL

O=C(NCCCN1CCN(C(=O)N[C@@H](C(=O)N[C@H]2Cc3ccc(F)c(C(=O)O)c3OB2O)c2cc(F)c(O)c(O)c2Cl)C(=O)C1=O)c1ccncc1 [Example 294, (R)-3-((R)-2-(2-chloro-5-fluoro-3,4-dihydroxyphenyl)-2-(4-(3-(isonicotinamido)propyl)-2,3-dioxopiperazine-1-carboxamido)acetamido)-7-fluoro-2-hydroxy-3,4-dihydro-2H-benzo[e][1,2]oxaborinine-8-carboxylic acid]
pEC50 [3]: > 5.00
MIC (A. baumannii ATCC 17978): < 1 µg/mL
MIC (A. baumannii ATCC 19606): < 1 µg/mL
MIC (P. aeruginosa ATCC 35151): < 1 µg/mL
MIC [1]: < 1 µg/mL
MIC (P. aeruginosa CDC-0090): < 1 µg/mL
MIC (P. aeruginosa CDC-0095): < 1 µg/mL
MIC (A. baumannii CDC-0033): 2 to 4 µg/mL (≈ 2.69 to 5.37 µM)
MIC (A. baumannii CDC-0036): < 1 µg/mL
MIC (A. baumannii CDC-0045): < 1 µg/mL
MIC [2]: < 1 µg/mL

O=C(NCCCN1CCN(C(=O)N[C@H](C(=O)N[C@H]2Cc3ccc(F)c(C(=O)O)c3OB2O)c2cc(F)c(O)c(O)c2Cl)C(=O)C1=O)c1ccnc(F)c1F [Example 299, (R)-3-((S)-2-(2-chloro-5-fluoro-3,4-dihydroxyphenyl)-2-(4-(3-(2,3-difluoroisonicotinamido)propyl)-2,3-dioxopiperazine-1-carboxamido)acetamido)-7-fluoro-2-hydroxy-3,4-dihydro-2H-benzo[e][1,2]oxaborinine-8-carboxylic acid]
pEC50 [3]: < 3.60
MIC (A. baumannii ATCC 17978): < 1 µg/mL
MIC (A. baumannii ATCC 19606): 2 to 4 µg/mL (≈ 2.56 to 5.12 µM)
MIC (P. aeruginosa ATCC 35151): < 1 µg/mL
MIC [1]: 2 to 4 µg/mL (≈ 2.56 to 5.12 µM)
MIC (P. aeruginosa CDC-0090): 2 to 4 µg/mL (≈ 2.56 to 5.12 µM)
MIC (P. aeruginosa CDC-0095): 2 to 4 µg/mL (≈ 2.56 to 5.12 µM)
MIC (A. baumannii CDC-0033): 8 to 16 µg/mL (≈ 10.2 to 20.5 µM)
MIC (A. baumannii CDC-0036): 32 to 64 µg/mL (≈ 41 to 82 µM)
MIC (A. baumannii CDC-0045): > 128 µg/mL
MIC [2]: > 128 µg/mL

O=C(NCCCN1CCN(C(=O)N[C@@H](C(=O)N[C@H]2Cc3ccc(F)c(C(=O)O)c3OB2O)c2cc(F)c(O)c(O)c2Cl)C(=O)C1=O)c1ccnc(F)c1F [Example 300, (R)-3-((R)-2-(2-chloro-5-fluoro-3,4-dihydroxyphenyl)-2-(4-(3-(2,3-difluoroisonicotinamido)propyl)-2,3-dioxopiperazine-1-carboxamido)acetamido)-7-fluoro-2-hydroxy-3,4-dihydro-2H-benzo[e][1,2]oxaborinine-8-carboxylic acid]
pEC50 [3]: > 5.00
MIC (A. baumannii ATCC 17978): < 1 µg/mL
MIC (A. baumannii ATCC 19606): < 1 µg/mL
MIC (P. aeruginosa ATCC 35151): < 1 µg/mL
MIC [1]: < 1 µg/mL
MIC (P. aeruginosa CDC-0090): < 1 µg/mL
MIC (P. aeruginosa CDC-0095): 2 to 4 µg/mL (≈ 2.56 to 5.12 µM)
MIC (A. baumannii CDC-0033): 2 to 4 µg/mL (≈ 2.56 to 5.12 µM)
MIC (A. baumannii CDC-0036): 2 to 4 µg/mL (≈ 2.56 to 5.12 µM)
MIC (A. baumannii CDC-0045): < 1 µg/mL
MIC [2]: < 1 µg/mL

Cc1cc(C(=O)NCCCN2CCN(C(=O)NC(C(=O)N[C@H]3Cc4ccc(F)c(C(=O)O)c4OB3O)c3cc(F)c(O)c(O)c3Cl)C(=O)C2=O)c(F)cn1 (stereo partly drawn) [Example 301, (3R)-3-(2-(2-chloro-5-fluoro-3,4-dihydroxyphenyl)-2-(4-(3-(5-fluoro-2-methylisonicotinamido)propyl)-2,3-dioxopiperazine-1-carboxamido)acetamido)-7-fluoro-2-hydroxy-3,4-dihydro-2H-benzo[e][1,2]oxaborinine-8-carboxylic acid]
pEC50 [3]: > 5.00
MIC (A. baumannii ATCC 17978): < 1 µg/mL
MIC (A. baumannii ATCC 19606): < 1 µg/mL
MIC (P. aeruginosa ATCC 35151): < 1 µg/mL
MIC [1]: < 1 µg/mL
MIC (P. aeruginosa CDC-0090): < 1 µg/mL
MIC (P. aeruginosa CDC-0095): < 1 µg/mL
MIC (A. baumannii CDC-0033): 2 to 4 µg/mL (≈ 2.57 to 5.15 µM)
MIC (A. baumannii CDC-0036): 2 to 4 µg/mL (≈ 2.57 to 5.15 µM)
MIC (A. baumannii CDC-0045): < 1 µg/mL
MIC [2]: 2 to 4 µg/mL (≈ 2.57 to 5.15 µM)

O=C(NCCCN1CCN(C(=O)N[C@H](C(=O)N[C@H]2Cc3ccc(F)c(C(=O)O)c3OB2O)c2cc(F)c(O)c(O)c2Cl)C(=O)C1=O)c1cccc(O)c1Cl [Example 302, (R)-3-((S)-2-(4-(3-(2-chloro-3-hydroxybenzamido)propyl)-2,3-dioxopiperazine-1-carboxamido)-2-(2-chloro-5-fluoro-3,4-dihydroxyphenyl)acetamido)-7-fluoro-2-hydroxy-3,4-dihydro-2H-benzo[e][1,2]oxaborinine-8-carboxylic acid]
pEC50 [3]: < 3.60
MIC (A. baumannii ATCC 17978): 2 to 4 µg/mL (≈ 2.52 to 5.04 µM)
MIC (A. baumannii ATCC 19606): 32 to 64 µg/mL (≈ 40.3 to 80.6 µM)
MIC (P. aeruginosa ATCC 35151): 2 to 4 µg/mL (≈ 2.52 to 5.04 µM)
MIC [1]: 2 to 4 µg/mL (≈ 2.52 to 5.04 µM)
MIC (P. aeruginosa CDC-0090): 32 to 64 µg/mL (≈ 40.3 to 80.6 µM)
MIC (P. aeruginosa CDC-0095): > 128 µg/mL
MIC (A. baumannii CDC-0033): > 128 µg/mL
MIC (A. baumannii CDC-0036): > 128 µg/mL
MIC (A. baumannii CDC-0045): > 128 µg/mL
MIC [2]: > 128 µg/mL

O=C(NCCCN1CCN(C(=O)N[C@@H](C(=O)N[C@H]2Cc3ccc(F)c(C(=O)O)c3OB2O)c2cc(F)c(O)c(O)c2Cl)C(=O)C1=O)c1cccc(O)c1Cl [Example 303, (R)-3-((R)-2-(4-(3-(2-chloro-3-hydroxybenzamido)propyl)-2,3-dioxopiperazine-1-carboxamido)-2-(2-chloro-5-fluoro-3,4-dihydroxyphenyl)acetamido)-7-fluoro-2-hydroxy-3,4-dihydro-2H-benzo[e][1,2]oxaborinine-8-carboxylic acid]
pEC50 [3]: > 5.00
MIC (A. baumannii ATCC 17978): < 1 µg/mL
MIC (A. baumannii ATCC 19606): < 1 µg/mL
MIC (P. aeruginosa ATCC 35151): < 1 µg/mL
MIC [1]: < 1 µg/mL
MIC (P. aeruginosa CDC-0090): < 1 µg/mL
MIC (P. aeruginosa CDC-0095): < 1 µg/mL
MIC (A. baumannii CDC-0033): 2 to 4 µg/mL (≈ 2.52 to 5.04 µM)
MIC (A. baumannii CDC-0036): < 1 µg/mL
MIC (A. baumannii CDC-0045): < 1 µg/mL
MIC [2]: < 1 µg/mL

O=C(NCCCN1CCN(C(=O)NC(C(=O)N[C@H]2Cc3ccc(F)c(C(=O)O)c3OB2O)c2cc(F)c(O)c(O)c2Cl)C(=O)C1=O)c1ccc(O)c(F)c1 (stereo partly drawn) [Example 304, (3R)-3-(2-(2-chloro-5-fluoro-3,4-dihydroxyphenyl)-2-(4-(3-(3-fluoro-4-hydroxybenzamido)propyl)-2,3-dioxopiperazine-1-carboxamido)acetamido)-7-fluoro-2-hydroxy-3,4-dihydro-2H-benzo[e][1,2]oxaborinine-8-carboxylic acid]
pEC50 [3]: > 5.00
MIC (A. baumannii ATCC 17978): < 1 µg/mL
MIC (A. baumannii ATCC 19606): < 1 µg/mL
MIC (P. aeruginosa ATCC 35151): < 1 µg/mL
MIC [1]: < 1 µg/mL
MIC (P. aeruginosa CDC-0090): < 1 µg/mL
MIC (P. aeruginosa CDC-0095): < 1 µg/mL
MIC (A. baumannii CDC-0033): 2 to 4 µg/mL (≈ 2.57 to 5.14 µM)
MIC (A. baumannii CDC-0036): 2 to 4 µg/mL (≈ 2.57 to 5.14 µM)
MIC (A. baumannii CDC-0045): < 1 µg/mL
MIC [2]: 2 to 4 µg/mL (≈ 2.57 to 5.14 µM)

— patent US20240270762A1, “PENICILLIN-BINDING PROTEIN INHIBITORS” (priority 2021, published 2024)
